The values below come from US11179445B2, “Pharmaceutical composition and biomaterial comprising fusion peptide in which bone tissue-selective peptide bound to parathyroid hormone (PTH) or fragment thereof” (Nano Intelligent Biomedical Engineering Corporation Co. Ltd., priority 2017, dated 2021).

The conditions of data set [1]: cited from earlier work.
Data set [2] can be described thus: Concentration of calcium in blood of osteoporosis-induced mice (QuantiChrom calcium assay kit). Type of data set: in vivo. As to conditions: ovariectomized ICR mice; PTH 20 μg/kg daily for 3 months, fusion peptide 80 pg/kg weekly for 6 months. On the procedure: Six week-old ICR mice were anesthetized by intramuscular injection using a mixture of 10 mg/kg of xylazine (Rompun®, Bayer, Korea) and 100 mg/kg of ketamine (Ketalar®, Yuhan Co., Ltd., Korea) and then the ovaries present below the bilateral kidneys were entirely removed carefully. Suturing was performed by an ordinary method and 3 mg/kg of gentamicin (Gentamycin®, JW Pharmaceutical Corporation, Korea) was intramuscularly injected.
Three months after the ovariectomy, whether or not bone loss occurred was checked. […] The change in bone density was evaluated, as compared with a group not treated with osteoporosis.
The concentration of calcium in blood was determined using a QuantiChrom™ calcium assay kit (Bioassay Systems, Hayward, Calif.). […] One of the effects of PTH on the human body is to increase the concentration of calcium in blood by affecting bones and kidneys. Therefore, long-term administration of PTH causes side effects that induce hypercalcemia.

Regarding `CC[C@H](C)[C@H](NC(=O)[C@H](CCC(=O)O)NC(=O)[C@H](CO)NC(=O)[C@@H](NC(=O)[C@@H](N)CO)C(C)C)C(=O)N[C@@H](CCC(N)=O)C(=O)N[C@@H](CC(C)C)C(=O)N[C@@H](CCSC)C(=O)N[C@@H](Cc1cnc[nH]1)C(=O)N[C@@H](CC(N)=O)C(=O)N[C@@H](CC(C)C)C(=O)NCC(=O)N[C@@H](CCCCN)C(=O)N[C@@H](Cc1cnc[nH]1)C(=O)N[C@@H](CC(C)C)C(=O)N[C@@H](CC(N)=O)C(=O)N[C@@H](CO)C(=O)N[C@@H](CCSC)C(=O)N[C@@H](CCC(=O)O)C(=O)N[C@@H](CCCN=C(N)N)C(=O)N[C@H](C(=O)N[C@@H](CCC(=O)O)C(=O)N[C@@H](Cc1c[nH]c2ccccc12)C(=O)N[C@@H](CC(C)C)C(=O)N[C@@H](CCCN=C(N)N)C(=O)N[C@@H](CCCCN)C(=O)N[C@@H](CCCCN)C(=O)N[C@@H](CC(C)C)C(=O)N[C@@H](CCC(N)=O)C(=O)N[C@@H](CC(=O)O)C(=O)N[C@H](C(=O)N[C@@H](Cc1cnc[nH]1)C(=O)N[C@@H](CC(N)=O)C(=O)N[C@@H](Cc1ccccc1)C(=O)O)C(C)C)C(C)C` [Forteo], in data set [1] (subcutaneous injection once a day), the half-life is not above 1 h. Moreover, the side effects entry in data set [1] (upon use for a long time of 2 years or longer) was “hypercalcemia and even a high incidence of osteosarcoma”. `CC[C@H](C)[C@H](NC(=O)[C@H](CCC(=O)O)NC(=O)[C@H](CO)NC(=O)[C@@H](NC(=O)[C@@H](N)CO)C(C)C)C(=O)N[C@@H](CCC(N)=O)C(=O)N[C@@H](CC(C)C)C(=O)N[C@@H](CCSC)C(=O)N[C@@H](Cc1cnc[nH]1)C(=O)N[C@@H](CC(N)=O)C(=O)N[C@@H](CC(C)C)C(=O)NCC(=O)N[C@@H](CCCCN)C(=O)N[C@@H](Cc1cnc[nH]1)C(=O)N[C@@H](CC(C)C)C(=O)N[C@@H](CC(N)=O)C(=O)N[C@@H](CO)C(=O)N[C@@H](CCSC)C(=O)N[C@@H](CCC(=O)O)C(=O)N[C@@H](CCCN=C(N)N)C(=O)N[C@H](C(=O)N[C@@H](CCC(=O)O)C(=O)N[C@@H](Cc1c[nH]c2ccccc12)C(=O)N[C@@H](CC(C)C)C(=O)N[C@@H](CCCN=C(N)N)C(=O)N[C@@H](CCCCN)C(=O)N[C@@H](CCCCN)C(=O)N[C@@H](CC(C)C)C(=O)N[C@@H](CCC(N)=O)C(=O)N[C@@H](CC(=O)O)C(=O)N[C@H](C(=O)N[C@@H](Cc1cnc[nH]1)C(=O)N[C@@H](CC(N)=O)C(=O)N[C@@H](Cc1ccccc1)C(=O)O)C(C)C)C(C)C` [PTH, reference compound]: the “concentration of calcium in blood” value in data set [2] was “increased the concentration of calcium at one month”.
